From patent publication US4336400A, “3-(Hydroxy or hydroxymethyl)-4-hydroxy-alpha(aminomethyl)benzyl alcohols and methods of use” (Sterling Drug Inc., priority 1978, dated 1982)
Several values for one entry are separate records, joined by “and”; a condition that tells them apart may be missing. Identical values can stand only once. Counter-ions that a name gives are not always drawn.

Legend:
[1] = system: guinea pig bronchioles constricted by carbachol; assay: Bronchodilator Test Method II: in vitro, perfused guinea pig lung, bronchioles constricted by carbachol; conditions: for Bronchodilator Action, Duration (min) Mean: dose mcg(base) given
Method: Bronchodilator activity was tested in anesthetized dogs (Test Method I) and in vitro on the perfused guinea pig lung (Test Method II), using the following pharmacological test procedures:
In this method bronchodilator activity in vitro was determined by testing the effect of graded doses of the test compounds on guinea pig bronchioles constricted by carbachol, using the technique reported by Sollman and von Oettingen, Proc. Soc. Exp. Biol. Med., 25, 692 (1928) as modified by Tainter, Pedden, and James, J. Pharm. Exp. Ther., 51, 371 (1934) and by Luduena, von Euler, Tuller, and Lands, Arch. Intern. Pharmacol., III, 392 (1957).

[2] = system: diastolic blood pressure; assay: Effect on diastolic blood pressure in the anesthetized dog, intravenous; assay type: in vivo; conditions: i.v., dose (salt) mcg/kg
Method: Injections were repeated at 20-30 minutes.
Cardiovascular Studies The effect of a rapid intravenous injection on the heart rate was conducted in anesthetized dogs under normal respiration. A few open-chest dogs were also tested. Increase in heart rate was measured by using an electrocardiograph attached to the dog. Readings were taken every 0.5-1 minutes for the first 10 minutes and every 2-5 minutes thereafter until recovery. In some cases, several doses and more than one compound were tested alternately in the same dog. The blood pressure effect was simultaneously recorded.

[3] = Solubility, pH of solution and precipitation; assay type: physicochemical; conditions: for precipitation on dilution of a 1 percent dimethyl sulfoxide solution with three volumes of water: 1 percent solution in dimethyl sulfoxide; for precipitation on dilution of a 1 percent glycerol formal solution with three volumes of water: 1 percent solution in glycerol formal; for precipitation when the pH was adjusted to 7.0 with N/10 sodium hydroxide: 1 percent aqueous solution, pH 7.0
[4] = system: normal airway pressure; assay: Control bronchoconstriction in anesthetized dog; assay type: in vivo; conditions: i.v., carbachol 4 to 6 micrograms per kilogram, histamine diphosphate 35 to 45 micrograms per kilogram, majority of test animals
Method: Test Method I: Male and female dogs weighing 9-18 kg. each were anesthetized with pentobarbital sodium (30 mg./kg. i.v.). Each animal, with thorax opened at the mid-sternum, was maintained under artificial ventilation using a constant volume pump (250 ml./stroke; ten to twelve strokes per minute) attached to the tracheal cannula. The flow of air was controlled by a glass or plastic valve which closed and opened respectively on inflow and outflow of the air to and from the tracheal cannula. Bronchoconstriction and/or bronchodilatation were measured from changes in the basal airway pressure reflected by a transducer attached to the sidearm of the cannula relayed to a polygraph.
Control bronchoconstrictions were induced by intravenous injections of carbachol (choline chloride carbamate) in doses ranging from 4 to 6 micrograms per kilogram or histamine diphosphate in doses ranging from 35 to 45 micrograms per kilogram.

Row | Structure (SMILES) | Bronchodilator Action, Duration (min) Mean ([1]; Doryl conc. 1:5 million) [min] | ED50 ([1]; Doryl conc. 1:5 million) | further results
1 | COc1ccc(C(=O)Oc2ccc(C(O)CNC(C)(C)C)cc2OC(=O)c2ccccc2)cc1.Cl (stereo not drawn) [Example 143, 3-benzoyloxy-4-(p-anisoyloxy)-alpha-(tert-butylaminomethyl)benzyl alcohol hydrochloride] | – | – | ED50 ([1]; Doryl conc. 1:10 million): 1.53 mcg(base); Bronchodilator Action, Duration (min) Mean ([1]; Doryl conc. 1:10 million): 29.2 ± 10.2 min
2 | CCC(NC(C)(C)C)C(O)c1ccc(OC(=O)c2ccc(C)cc2)c(OC(=O)c2ccc(C)cc2)c1 (stereo not drawn) [Example 144, 3,4-bis(p-toluyloxy)-alpha-[1-(tert-butylamino)-propyl]benzyl alcohol hydrochloride] | 83 ± 26.8 | – | –
3 | Cc1ccc(C(=O)Oc2ccc(C(O)CNC(C)(C)C)cc2OC(=O)c2ccc(C)cc2)cc1 (stereo not drawn) [Example 30, 3,4-bis(p-toluyloxy)-alpha-(tert-butylaminomethyl)-benzyl alcohol methanesulfonate] | – | – | Mean Decrease in Diastolic Blood Pressure in % [2]: 2% and 11% and 11.5%
4 | CC(C)(C)NCC(O)c1ccc(OC(=O)c2ccccc2)c(OC(=O)c2ccccc2)c1.Cl (stereo not drawn) [Example 29, 3,4-bis(benzoyloxy)-alpha-(tert-butylaminomethyl)-benzyl alcohol hydrochloride] | 34 ± 6.4 | 1.1 mcg(base) | precipitation on dilution of a 1 percent dimethyl sulfoxide solution with three volumes of water [3]: no precipitate formed; precipitation on dilution of a 1 percent glycerol formal solution with three volumes of water [3]: no precipitate formed
5 | CC(C)(C)NCC(O)c1ccc(OC(=O)C(C)(C)C)c(OC(=O)C(C)(C)C)c1.Cl (stereo not drawn) [Example 5, 3,4-bis(pivalyloxy)-alpha-(tert-butylaminomethyl)-benzyl alcohol hydrochloride] | 18 ± 4.2 | 0.94 mcg(base) | –
6 | CC(C)C(=O)Oc1ccc(C(O)CNC(C)(C)C)cc1OC(=O)C(C)C.Cl (stereo not drawn) [Example 2, 3,4-bis(isobutyryloxy)-alpha-(tert-butylaminomethyl)-benzyl alcohol hydrochloride] | 9 ± 1.1 | 0.28 mcg(base) | –
7 | COc1ccc(C(=O)Oc2ccc(C(O)CNC(C)(C)C)cc2OC(=O)c2ccc(OC)cc2)cc1.Cl (stereo not drawn) [Example 33, 3,4-bis(p-anisoyloxy)-alpha-(tert-butylaminomethyl)-benzyl alcohol hydrochloride] | 32 ± 5 | 6.9 mcg(base) | precipitation on dilution of a 1 percent dimethyl sulfoxide solution with three volumes of water [3]: no precipitate formed; precipitation on dilution of a 1 percent glycerol formal solution with three volumes of water [3]: no precipitate formed
8 | CC(C)(C)NCC(O)c1ccc(O)c(O)c1 (stereo not drawn) [Ref. Cpd. I, 3,4-Dihydroxy-alpha-(tert-butylaminomethyl)benzyl alcohol, reference compound] | 5 ± 1.4 | 0.18 mcg(base) | –
9 | CC(C)CC(=O)Oc1cc(C(O)CNC(C)(C)C)ccc1OC(=O)C(C)(C)C.Cl (stereo not drawn) [Example 71, 3-(isovaleryloxy)-4-(pivalyloxy)-alpha-(tert-butylaminomethyl)benzyl alcohol hydrochloride] | 26 | 0.63 mcg(base) | –
10 | COc1ccc(C(=O)Oc2ccc(C(O)CNC(C)(C)C)cc2COC(C)=O)cc1 (stereo not drawn) [Example 151, 3-(acetoxymethyl)-4-(p-anisoyloxy)-alpha-(tert-butylaminomethyl)benzyl alcohol methanesulfonate] | – | – | Mean Decrease in Diastolic Blood Pressure in % [2]: 10%
11 | CC(C)(C)CC(=O)Oc1ccc(C(O)CNC(C)(C)C)cc1OC(=O)CC(C)(C)C.Cl (stereo not drawn) [Example 7, 3,4-bis(3,3-dimethylbutanoyloxy)-alpha-(tert-butylaminomethyl)benzyl alcohol hydrochloride] | 85 ± 17 | 23 mcg(base) | –
12 | C[N+](C)(C)CCOC(N)=O [carbachol, choline chloride carbamate] | – | – | increase in the normal airway pressure or amplitude [4]: 100-200%
13 | CCC(NC1CCCC1)C(O)c1ccc(OC(=O)CC(C)C)c(OC(=O)CC(C)C)c1.Cl (stereo not drawn) [Example 138, 3,4-bis(isovaleryloxy)-alpha-[1-(cyclopentylamino)propyl]benzyl alcohol hydrochloride] | 25.4 ± 3.5 | 0.46 mcg(base) | –
14 | CCC(C)C(=O)Oc1ccc(C(O)CNC(C)(C)C)cc1OC(=O)C(C)CC.Cl (stereo not drawn) [Example 4, 3,4-bis(2-methylbutanoyloxy)-alpha-(tert-butylaminomethyl)benzyl alcohol hydrochloride] | 20 ± 3 | 0.45 mcg(base) | –
15 | CC(C)CC(=O)Oc1ccc(C(O)CNC(C)(C)C)cc1OC(=O)CC(C)C.Cl (stereo not drawn) [Example 3, 3,4-bis(isovaleryloxy)-alpha-(tert-butylaminomethyl)benzyl alcohol hydrochloride] | 18 ± 4 | 0.6 mcg(base) | precipitation when the pH was adjusted to 7.0 with N/10 sodium hydroxide [3]: a precipitate formed
16 | CC(C)(C)NCC(O)c1ccc(OC(=O)C2(C)CC2)c(OC(=O)C2(C)CC2)c1.Cl (stereo not drawn) [Example 13, 3,4-bis(1-methylcyclopropanecarbonyloxy)-alpha-(tert-butylaminomethyl)benzyl alcohol hydrochloride] | 15 ± 1.7 | 0.45 mcg(base) | –
17 | CCC(C)CC(=O)Oc1ccc(C(O)CNC(C)(C)C)cc1OC(=O)CC(C)CC.Cl (stereo not drawn) [Example 6, 3,4-bis(3-methylpentanoyloxy)-alpha-(tert-butylaminomethyl)benzyl alcohol hydrochloride] | 43 ± 3.7 | 1.3 mcg(base) | –
18 | NCCc1c[nH]cn1 [histamine diphosphate] | – | – | increase in the normal airway pressure or amplitude [4]: 100-200%
19 | CCCC(=O)Oc1ccc(C(O)CNC(C)(C)C)cc1OC(=O)CCC.Cl (stereo not drawn) [Example 1, 3,4-bis(butyryloxy)-alpha-(tert-butylaminomethyl)-benzyl alcohol hydrochloride] | 9 ± 1.0 | 0.23 mcg(base) | precipitation when the pH was adjusted to 7.0 with N/10 sodium hydroxide [3]: a precipitate formed
20 | CC(C)(C)NCC(O)c1ccc(OC(=O)C2CCCCC2)c(OC(=O)C2CCCCC2)c1.Cl (stereo not drawn) [Example 15, 3,4-bis(cyclohexanecarbonyloxy)-alpha-(tert-butylaminomethyl)benzyl alcohol hydrochloride] | 53 ± 7 | 1.3 mcg(base) | precipitation on dilution of a 1 percent dimethyl sulfoxide solution with three volumes of water [3]: no precipitate formed
21 | CC(C)NCC(O)c1ccc(O)c(O)c1 (stereo not drawn) [Ref. Cpd. II, 3,4-Dihydroxy-alpha-(isopropylaminomethyl)benzyl alcohol, reference compound] | 5 | – | –
